Test results taken from PubChem BioAssay AID434997 (The Scripps Research Institute Molecular Screening Center, 2010).

Molecular target: NADPH oxidase 1 (Homo sapiens) (UniProt Q9Y5S8)
Experiment: NOX1 inhibitors, concentration-response, dose response, cell-based, luminescence, cherry picks 2 (AID 434997)
Conditions: NOX1-expressing cells, ROS luminescence

NADPH oxidase 1 (Homo sapiens), sequence (Q9Y5S8 whole entry, looked up): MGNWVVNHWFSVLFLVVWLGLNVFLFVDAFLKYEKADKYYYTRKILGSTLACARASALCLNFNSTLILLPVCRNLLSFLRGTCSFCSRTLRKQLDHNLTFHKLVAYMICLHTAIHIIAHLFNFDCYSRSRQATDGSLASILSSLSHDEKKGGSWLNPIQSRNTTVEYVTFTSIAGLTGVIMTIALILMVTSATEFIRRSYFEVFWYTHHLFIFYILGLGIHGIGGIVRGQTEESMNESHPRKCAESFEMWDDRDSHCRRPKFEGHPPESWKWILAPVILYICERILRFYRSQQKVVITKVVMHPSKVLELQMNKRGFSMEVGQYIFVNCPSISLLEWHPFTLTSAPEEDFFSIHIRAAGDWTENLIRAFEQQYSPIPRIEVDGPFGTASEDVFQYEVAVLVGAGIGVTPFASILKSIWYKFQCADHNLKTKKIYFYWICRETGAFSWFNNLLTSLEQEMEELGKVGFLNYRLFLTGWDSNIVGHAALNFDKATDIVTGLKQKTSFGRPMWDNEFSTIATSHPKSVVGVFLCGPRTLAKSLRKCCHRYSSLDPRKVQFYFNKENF

IC50: 320 nM
SMILES: FC(F)(F)c1ccc2c(c1)Nc1ccccc1S2
